The source of these data is patent publication US11179450B2, “Long chain antigen containing interepitope sequence that promotes antigen presentation to T cells” (MIE UNIVERSITY, priority 2013, dated 2021).

One test relates to NY p157 specific CD8+ T cell clone 1G4 cells. Nature of the test: Antigen presentation by LCL given CHP/long chain peptide vaccine, IFN-γ ELISPOT. The test is classed as cell-based, human. As to conditions: FIG. 10; NMW peptide complexed with CHP given to LCL as antigen-presenting cells. The text has this:
Long chain peptide antigens NMW, all containing three types of human CD8+ T cell epitope sequences (NY p157:HLA-A0201 restrictive, MA4 p143:HLA-A2402 restrictive, and WT1: HLA-A2402 restrictive p235), were synthesized. The interepitode sequences between the respective epitopes were the six consecutive amino acids shown in FIG. 10, namely Sequence Nos. 18-26. Each long chain peptide antigen was complexed with cholesterol-modified pullulan (CHP), which is a type of delivery system, and administered in vitro as a vaccine to an immortalized human B cell line (LCL). Using these human B cells as the antigen-presenting cells, they were co-cultured with CD8+ T cell clone 1G4 cells specific to NY p157 and the activation of the 1G4 cells due to antigen presentation was measured by an IFN-γ ELISPOT method. As a positive control, LCL administered with an NY p157 short chain peptide was used as the antigen-presenting cells, and as a negative control, LCL without antigen added was used as the antigen-presenting cells.
Cryostored LCL was rinsed with RPMI medium and suspended at 1.25×10^6/mL in X-VIVO15 medium. This was dispensed in 0.4 mL aliquots into polypropylene tubes, and 0.1 mL of a vaccine solution (0.1 mg/mL as peptide) was added to each tube. The cells were cultured for 24 hours at 37° C. in the presence of 5% CO2 and then used as antigen-presenting cells.
75 μL aliquots of anti-IFN-γ antibody for capture, diluted to an appropriate concentration, were dispensed into a 96-well plate (Millipore Corp., Multiscreen HA, MAHAS4510) specially designed for ELISPOT and left to stand overnight at 4° C. After discarding the liquid and rinsing with RPMI medium, 100 μL aliquots of RPMI medium containing 10% fetal bovine serum were dispensed and the plate was left to stand for not less than 1 hour at 37° C. The liquid was discarded, and the LCL prepared in (9) or (10) was adjusted to 5×10^4 cells/100 μL/well and added to each well. The cryostored CD8^+ T cell clones were thawed, rinsed, adjusted to 5×10^5/mL with RPMI medium, and thereafter added in 0.1 mL aliquots to each well. After culturing for 24 hours at 37° C. in the presence of 5% CO2, the liquid was discarded and the plate was rinsed well with phosphate buffered saline containing 0.05% Tween 20 (PBS-T). A biotin-labeled IFN-γ antibody for detection was diluted to an appropriate concentration and dispensed in 0.1 mL aliquots into each well. After letting stand overnight at 4° C., the plate was rinsed well with PBS-T, and an alkaline phosphatase-labeled streptavidin diluted to an appropriate concentration was added in 0.1 mL aliquots. After incubating for 1 hour at room temperature, the plate was rinsed well with PBS-T. A coloring solution was added in 0.1 mL aliquots and allowed to react for 5 minutes to 30 minutes at room temperature. When the formation of spots was observed, the reaction was stopped by rinsing with water.
As for “SLLMWITQCSSSSSSNYKRCFPVISSSSSSCMTWNQMNL (Long chain peptide antigen, containing three types of human CD8+ T cell recognition epitope sequences (NY p157, MA4 p143, and WT1 p235)) [NMW(S6)]”, the “activation of 1G4 cells” value is on record as “clearly observed”.

Take “SLLMWITQCYYYYYYNYKRCFPVIYYYYYYCMTWNQMNL (Long chain peptide antigen, containing three types of human CD8+ T cell recognition epitope sequences (NY p157, MA4 p143, and WT1 p235)) [NMW(Y6)]”: the “activation of 1G4 cells” value was “clearly confirmed”.

With “SLLMWITQCNNNNNNNYKRCFPVINNNNNNCMTWNQML (SLLMWITQCNNNNNNNYKRCFPVINNNNNNCMTWNQMNL; Long chain peptide antigen, containing three types of human CD8+ T cell recognition epitope sequences (NY p157, MA4 p143, and WT1 p235)) [NMW(N6)]”, the “activation of 1G4 cells” value was “clearly observed”.

In the case of “SLLMWITQCPPPPPPNYKRCFPVIPPPPPPCMTWNQMNL (Long chain peptide antigen, containing three types of human CD8+ T cell recognition epitope sequences (NY p157, MA4 p143, and WT1 p235)) [NMW(P6)]”, the “activation of 1G4 cells” value is given as “not clearly confirmed”.

Consider “SLLMWITQCAAAAAANYKRCFPVIAAAAAACMTWNQMNL (Long chain peptide antigen, containing three types of human CD8+ T cell recognition epitope sequences (NY p157, MA4 p143, and WT1 p235)) [NMW(A6)]”, for which the “activation of 1G4 cells” value is on record as “clearly observed”.

On to “SLLMWITQCGGGGGGNYKRCFPVIGGGGGGCMTWNQMNL (Long chain peptide antigen, containing three types of human CD8+ T cell recognition epitope sequences (NY p157, MA4 p143, and WT1 p235)) [NMW(G6)]”, for which the “activation of 1G4 cells” value is reported as “not clearly confirmed”.

For the sequence “SLLMWITQCQQQQQQNYKRCFPVIQQQQQQCMTWNQMNL (Long chain peptide antigen, containing three types of human CD8+ T cell recognition epitope sequences (NY p157, MA4 p143, and WT1 p235)) [NMW(Q6)]”, the “activation of 1G4 cells” value is given as “clearly observed”.

The next test relates to CD8+ T cells specific to MA p265, NY p81 and mERK2 9m. Put plainly: Specific CD8+ T cell induction by CHP/long chain peptide vaccines in mice, intracellular cytokine staining of spleen cells. The test is classed as in vivo, BALB/c mice. The conditions noted are these: FIG. 1; MEN antigens complexed with CHP, subcutaneous, CpG oligo DNA adjuvant; spleen cells one week after final administration. The text has this:
Long chain peptide antigens MEN, all containing three types of mouse CD8+ T cell epitope sequences (MA p265 (Sequence No. 27), NY p81 (Sequence No. 29), and mERK2 9m (Sequence No. 28)), were synthesized. The interepitope sequences between the respective epitopes were respectively six consecutive tyrosines (Y6) (Sequence No. 1), six consecutive glycines (G6) (Sequence No. 2), six consecutive prolines (P6) (Sequence No. 3), or six consecutive threonines (T6) (Sequence No. 4). Each long chain peptide antigen was complexed with cholesterol-modified pullulan (CHP), which is a type of delivery system, and administered as a vaccine to a mouse. In the process of administration, CpG oligo DNA was coadministered as an adjuvant. Spleen cells were collected one week after the final administration and the frequencies of CD8+ T cells specific to the respective epitope sequences were measured by an intracellular cytokine staining method.
Long chain peptide antigens NME, all containing three types of mouse CD8+ T cell epitope sequences (MA p265 (Sequence No. 27), NY p81 (Sequence No. 29), and mERK2 9m (Sequence No. 28)), were synthesized. The antigens differ from the MEN sequences shown in FIG. 1 in the order of the three types of epitopes. The interepitope sequences between the respective epitopes were respectively six consecutive tyrosines (Y6) (Sequence No. 5), six consecutive glycines (G6) (Sequence No. 6), or six consecutive prolines (P6) (Sequence No. 7). Vaccines containing the respective long chain peptide antigens were administered to mice in the same manner as in FIG. 1 and the frequencies of CD8+ T cells specific to the respective epitope sequences were measured by the intracellular cytokine staining method.
Long chain peptide antigens MEN, ENM, and NME, all containing three types of mouse CD8+ T cell epitope sequences (MA p265 (Sequence No. 27), NY p81 (Sequence No. 29), and mERK2 9m (Sequence No. 28)), were synthesized. MEN, ENM, and […] in the order of the three types of epitopes. The interepitope sequences between the respective epitopes were each six consecutive tyrosines (Y6) (Sequence Nos. 1, 5 and 8). Vaccines containing the respective long chain peptide antigens were administered to mice in the same manner as in FIG. 1 and the frequencies of CD8+ T cells specific to the respective epitope sequences were measured by the intracellular cytokine staining method.
Each long chain peptide was dissolved in dimethyl sulfoxide (DMSO) at a concentration of 10 mg/mL. CHP was dissolved in 6 M urea-containing phosphate buffered saline (PBS) at a concentration of 10 mg/mL 1 mL (10 mg) of the long chain peptide solution and 20 mL (200 mg) of the CHP solution were mixed and left to stand at room temperature overnight in a dark place. The liquid mixture was transferred into a dialysis membrane (molecular weight cutoff: 3,500; Thermo Fisher Scientific, Inc.) and dialyzed for 2 hours to overnight at 4° C. against 0.6 M urea-containing PBS of a volume ratio of not less than 100 times as the dialysis outer solution. Dialysis was then performed for 2 hours to overnight at 4° C. against 0.06 M urea-containing PBS of a volume ratio of not less than 100 times as the dialysis outer solution. Dialysis was performed again for 2 hours to overnight at 4° C. against PBS of a volume ratio of not less than 100 times as the dialysis outer solution. The dialyzed inner solution was collected, filtered through a filtration sterilization filter of 0.45 μm or 0.22 μm pore size, and thereafter the UV absorption at 280 nm was measured to determine the final concentration of the long chain peptide from its molecular extinction coefficient.
Each CHP/long chain peptide complex as the vaccine and the CpG oligo DNA as the adjuvant were administered at the same time to a mouse. Administration was performed by subcutaneous injection on the back of the mouse. […]
Take “SNPARYEFLTTTTTTQYIHSANVLTTTTTTRGPESRLL (Long chain peptide antigen, containing three types of mouse CD8+ T cell epitope sequences (MA p265, NY p81, and mERK2 9m)) [MEN(T6)]”: the “induction of specific CD8+ T cells corresponding to all three types of epitopes” value (“induction” for short) is “clearly induced”.

The same test, now with this note: FIG. 3; NME antigens (different epitope order) complexed with CHP, CpG oligo DNA.
“RGPESRLLPPPPPPSNPARYEFLPPPPPPQYIHSANVL (Long chain peptide antigen, containing three types of mouse CD8+ T cell epitope sequences (MA p265, NY p81, and mERK2 9m)) [NME(P6)]”: the “induction” value is reported as “not observed for one or two types of epitopes among the three types of epitopes”.

As for “RGPESRLLYYYYYYSNPARYEFLYYYYYYQYIHSANVL (Long chain peptide antigen, containing three types of mouse CD8+ T cell epitope sequences (MA p265, NY p81, and mERK2 9m)) [NME(Y6)]”, the “induction” value was “clearly induced”.

As to “RGPESRLLGGGGGGSNPARYEFLGGGGGGQYIHSANVL (Long chain peptide antigen, containing three types of mouse CD8+ T cell epitope sequences (MA p265, NY p81, and mERK2 9m)) [NME(G6)]”, the “induction” value was “not observed for one or two types of epitopes among the three types of epitopes”.

Staying with this test, now noted: FIG. 4; MEN, ENM, NME epitope orders, interepitope sequence fixed at Y6.
As for “RGPESRLLYYYYYYSNPARYEFLYYYYYYQYIHSANVL (Long chain peptide antigen, containing three types of mouse CD8+ T cell epitope sequences (MA p265, NY p81, and mERK2 9m)) [NME(Y6)]”, the “induction” value is listed as “clearly induced”.

Consider “QYIHSANVLYYYYYYRGPESRLLYYYYYYSNPARYEFL (Long chain peptide antigen, containing three types of mouse CD8+ T cell epitope sequences (MA p265, NY p81, and mERK2 9m)) [ENM(Y6)]”, for which the “induction” value is “clearly induced”.
